{
  "source": "patent US5877210A",
  "about": "“Phosphotyrosine phosphatase inhibitors or phosphotyrosine kinase activators for controlling cellular proliferation” (priority 1995, dated 1999)",
  "key": {"[1]": {"test_system": "normal peripheral B cells", "test": "Normal peripheral B cell [3H]-thymidine incorporation", "type": "cell-based, human", "protocol": "In the experiment reported in Table 4, monoclonal antibodies to CD20 and CD40 were used to stimulate proliferation. Peripheral B cells were isolated from two healthy human volunteers. The cells were stimulated as listed in Table 4 and the effects of various doses of BMLOV on proliferation, as measured by [^3 H]-thymidine incorporation, were determined. BMLOV was able to inhibit proliferation induced by CD20, CD40, IL-4 and PMA in the various combinations tested. The cells from donor 2 were more sensitive, indicating some variation among individuals in their sensitivity to the drug.\nStimulation of CD20 was via monoclonal antibody 1F5 and stimulation of CD40 was via monoclonal antibody G28-5.\nFor assays of cellular proliferation, cells were grown five days in the presence of the indicated concentrations of BMLOV, pulsed 6 hr with [^3 H]-thymidine (New England Nuclear, Boston, Mass.), and counted in a liquid scintillation counter. Human peripheral blood lymphocytes (PBL) from normal volunteers were isolated from lymphocyte separation medium (Litton Bionetics, Kensington, Md.) by density gradient centrifugation. Monocytes were depleted from PBL by two rounds of plastic absorption for 30 minutes at 37° C. B cells were enriched for by negative selection using complement plus monoclonal antibodies to CD2, CD3, CD4, and CD8 for complement depletion. Clonogenic assays of colony formation in methylcellulose medium were performed as previously described (F. M. Uckun et al. (1992), supra)."}, "[2]": {"test_system": "HL60", "test": "Apoptosis: DNA fragmentation on agarose gel", "type": "cell-based, human", "conditions": "dose dependent", "protocol": "(§1) For these experiments, cell samples (2×10^6 cells) were centrifuged at 200× g, the media removed by aspiration and the cell pellets stored at -70° C. until processing. Cell pellets were resuspended in 300 μl digestion buffer (100 mM NaCl, 10 mM Tris-HCl, pH 8.0, 25 mM EDTA, 0.5% SDS, 0.1 mg/ml protease K) and incubated for 12 hours at 50° C. DNase-free ribonuclease (5 μg) in 200 μl TE buffer (10 mM Tris-HCl, pH 7.5, 1 mM EDTA) was added to each sample followed by incubation for 2 hours at 37° C. DNA was then extracted once with phenol:chloroform, once with chloroform and then precipitated with 0.5 volumes of ammonium acetate and 2 volumes of ethanol at -70° C. for 12 hours. The precipitated DNA was resuspended in 200 μl TE buffer and quantitated by absorbance at 260 nanometers. The DNA (15 μg) was applied to a 1.3% agarose gel in TBE buffer (89 mM Tris base, 89 mM boric acid, 2 mM EDTA) resolved at 20 mA constant current and the DNA was visualized by staining with ethidium bromide. Fragmented DNA due to apoptosis appeared as a ladder of bands on the gel."}, "[3]": {"test_system": "Jurkat", "test": "Apoptosis: DNA fragmentation on agarose gel", "type": "cell-based, human", "protocol": "as §1"}, "[4]": {"test_system": "CEM", "test": "Apoptosis: DNA fragmentation on agarose gel", "type": "cell-based, human", "protocol": "as §1"}, "[5]": {"test_system": "Ramos B cell lymphoma cells", "test": "Apoptosis: DNA fragmentation on agarose gel", "type": "cell-based, human", "conditions": "10 μM, by 48 hours", "protocol": "as §1"}, "[6]": {"test_system": "peripheral blood lymphocytes (PBL)", "test": "PBL growth driven by antibody/cytokine stimulation", "type": "cell-based, human"}, "[7]": {"test_system": "Ramos B cells", "type": "cell-based, human", "description": "These effects were synergistic rather than additive in that an approximately 5-fold enhancement in sensitization for the combination treatment was observed relative to expected additive effects based on the use of either treatment alone."}, "[8]": {"test_system": "normal peripheral blood T cells", "quoted_text": "IL-2Rα expression was analyzed by flow cytometry after staining the cells with fluorescein-labeled anti-CD25. Cells not receiving any treatment are shown by the shaded profile, (- - -) 25 μM BMLOV only; (-) G19-4 only; (. . . ) G19-4 plus BMLOV. In Panel A, no IL-2 was added; in Panel B, incubations were performed with 1 ng/ml IL-2."}, "[9]": {"test": "Tolerability of BMLOV in mice", "type": "in vivo"}, "[10]": {"test_system": "i.p. B16 murine melanoma", "type": "in vivo", "protocol": "The cumulative dose MTD of 54 mg/kg was similar to the 60 mg/kg cumulative MTD observed in the last M109 experiment."}, "[11]": {"conditions": "peripheral blood t cells, 24 h, 25 µM"}},
  "note": "“Also recorded” adds a separate entry of the source.",
  "data": [
    {"smiles": "Cc1occc(=O)c1[O-].Cc1occc(=O)c1[O-].[O]=[V+2]", "note": "[BMLOV, Bis(maltolato)oxovanadium (IV)]", "values": [
      {"measurement": "[3H]cpm incorporation", "setting": "[1]; Donor #1, CD20 + CD40, 1 μM BMLOV", "value": 3619, "unit": "cpm"},
      {"measurement": "[3H]cpm incorporation", "setting": "[1]; Donor #1, CD20 + CD40, 5 μM BMLOV", "value": 3644, "unit": "cpm"},
      {"measurement": "[3H]cpm incorporation", "setting": "[1]; Donor #1, CD20 + CD40, 10 μM BMLOV", "value": 3422, "unit": "cpm"},
      {"measurement": "[3H]cpm incorporation", "setting": "[1]; Donor #1, CD20 + CD40, 25 μM BMLOV", "value": 2432, "unit": "cpm"},
      {"measurement": "[3H]cpm incorporation", "setting": "[1]; Donor #1, CD40 + IL4, 1 μM BMLOV", "value": 31966, "unit": "cpm"},
      {"measurement": "[3H]cpm incorporation", "setting": "[1]; Donor #1, CD40 + IL4, 5 μM BMLOV", "value": 33845, "unit": "cpm"},
      {"measurement": "[3H]cpm incorporation", "setting": "[1]; Donor #1, CD40 + IL4, 10 μM BMLOV", "value": 31637, "unit": "cpm"},
      {"measurement": "[3H]cpm incorporation", "setting": "[1]; Donor #1, CD40 + IL4, 25 μM BMLOV", "value": 24933, "unit": "cpm"},
      {"measurement": "[3H]cpm incorporation", "setting": "[1]; Donor #1, PMA + CD40, 1 μM BMLOV", "value": 62643, "unit": "cpm"},
      {"measurement": "[3H]cpm incorporation", "setting": "[1]; Donor #1, PMA + CD40, 5 μM BMLOV", "value": 58418, "unit": "cpm"},
      {"measurement": "[3H]cpm incorporation", "setting": "[1]; Donor #1, PMA + CD40, 10 μM BMLOV", "value": 45330, "unit": "cpm"},
      {"measurement": "[3H]cpm incorporation", "setting": "[1]; Donor #1, PMA + CD40, 25 μM BMLOV", "value": 25536, "unit": "cpm"},
      {"measurement": "[3H]cpm incorporation", "setting": "[1]; Donor #1, PMA + IL4, 1 μM BMLOV", "value": 61415, "unit": "cpm"},
      {"measurement": "[3H]cpm incorporation", "setting": "[1]; Donor #1, PMA + IL4, 5 μM BMLOV", "value": 48724, "unit": "cpm"},
      {"measurement": "[3H]cpm incorporation", "setting": "[1]; Donor #1, PMA + IL4, 10 μM BMLOV", "value": 45278, "unit": "cpm"},
      {"measurement": "[3H]cpm incorporation", "setting": "[1]; Donor #1, PMA + IL4, 25 μM BMLOV", "value": 14277, "unit": "cpm"},
      {"measurement": "[3H]cpm incorporation", "setting": "[1]; Donor #2, CD20 + CD40, 1 μM BMLOV", "value": 4593, "unit": "cpm"},
      {"measurement": "[3H]cpm incorporation", "setting": "[1]; Donor #2, CD20 + CD40, 5 μM BMLOV", "value": 5681, "unit": "cpm"},
      {"measurement": "[3H]cpm incorporation", "setting": "[1]; Donor #2, CD20 + CD40, 10 μM BMLOV", "value": 5269, "unit": "cpm"},
      {"measurement": "[3H]cpm incorporation", "setting": "[1]; Donor #2, CD20 + CD40, 25 μM BMLOV", "value": 856, "unit": "cpm"},
      {"measurement": "[3H]cpm incorporation", "setting": "[1]; Donor #2, CD40 + IL4, 1 μM BMLOV", "value": 16597, "unit": "cpm"},
      {"measurement": "[3H]cpm incorporation", "setting": "[1]; Donor #2, CD40 + IL4, 5 μM BMLOV", "value": 18824, "unit": "cpm"},
      {"measurement": "[3H]cpm incorporation", "setting": "[1]; Donor #2, CD40 + IL4, 10 μM BMLOV", "value": 12662, "unit": "cpm"},
      {"measurement": "[3H]cpm incorporation", "setting": "[1]; Donor #2, CD40 + IL4, 25 μM BMLOV", "value": 6013, "unit": "cpm"},
      {"measurement": "[3H]cpm incorporation", "setting": "[1]; Donor #2, PMA + CD40, 1 μM BMLOV", "value": 49102, "unit": "cpm"},
      {"measurement": "[3H]cpm incorporation", "setting": "[1]; Donor #2, PMA + CD40, 5 μM BMLOV", "value": 47624, "unit": "cpm"},
      {"measurement": "[3H]cpm incorporation", "setting": "[1]; Donor #2, PMA + CD40, 10 μM BMLOV", "value": 29024, "unit": "cpm"},
      {"measurement": "[3H]cpm incorporation", "setting": "[1]; Donor #2, PMA + CD40, 25 μM BMLOV", "value": 15671, "unit": "cpm"},
      {"measurement": "[3H]cpm incorporation", "setting": "[1]; Donor #2, PMA + IL4, 1 μM BMLOV", "value": 53642, "unit": "cpm"},
      {"measurement": "[3H]cpm incorporation", "setting": "[1]; Donor #2, PMA + IL4, 5 μM BMLOV", "value": 41892, "unit": "cpm"},
      {"measurement": "[3H]cpm incorporation", "setting": "[1]; Donor #2, PMA + IL4, 10 μM BMLOV", "value": 20313, "unit": "cpm"},
      {"measurement": "[3H]cpm incorporation", "setting": "[1]; Donor #2, PMA + IL4, 25 μM BMLOV", "value": 2730, "unit": "cpm"},
      {"measurement": "induction of apoptosis (DNA fragmentation)", "setting": "[2]", "value": "Apoptosis was also observed to be induced; also recorded: DNA fragmentation was also induced"},
      {"measurement": "induction of apoptosis (DNA fragmentation)", "setting": "[3]", "value": "apoptosis was not observed; also recorded: DNA fragmentation was not observed"},
      {"measurement": "induction of apoptosis (DNA fragmentation)", "setting": "[4]", "value": "apoptosis was not observed; also recorded: DNA fragmentation was not observed"},
      {"measurement": "induction of apoptosis (DNA fragmentation)", "setting": "[5]", "value": "induced apoptosis; also recorded: induced extensive DNA fragmentation"},
      {"measurement": "PBL growth driven by anti-CD28 antibody plus IL-2", "setting": "[6]; 1 μM BMLOV", "value": "markedly inhibited"},
      {"measurement": "PBL growth driven by anti-CD3 antibody plus anti-CD28 antibody", "setting": "[6]; 10 μM BMLOV", "value": "strongly inhibited"},
      {"measurement": "enhancement in sensitization relative to expected additive effects", "setting": "[7]; combination of BMLOV and radiation", "value": "approximately 5 fold"},
      {"measurement": "increase in cell death relative to radiation alone", "setting": "[7]; ramos b cells, 1 µM", "value": 10, "unit": "fold"},
      {"measurement": "increase in clonogenic cell death relative to radiation alone", "setting": "[7]; ramos b cells, 2 µM", "value": 50, "unit": "fold"},
      {"measurement": "IL-2Rα expression without anti-CD3 stimulation", "setting": "[8]; BMLOV alone or in combination with IL-2", "value": "did not induce IL-2Rα expression"},
      {"measurement": "enhancement of IL-2Rα expression over anti-CD3 and IL-2", "setting": "[8]; [11]", "value": 3, "unit": "fold"},
      {"measurement": "increase of IL-2Rα expression over anti-CD3 stimulation alone", "setting": "[8]; [11]", "value": 1.7, "unit": "fold"},
      {"measurement": "tolerability", "setting": "[9]; 1.6 mM BMLOV in drinking water continuously for 10 days", "value": "no overt ill effects"},
      {"measurement": "tolerability", "setting": "[9]; intraperitoneal doses up to 1 mg and oral doses up to 1.6 mg", "value": "without ill effects except for some temporary lethargy"}
    ]},
    {"smiles": "[Na+].[O]=[V-]12([O][O]1)[O][O]2.c1cnc2c(c1)ccc1cccnc12", "note": "[pV(phen), sodium (1,10-phenanthroline) oxodiperoxovanadium (V)]", "values": [
      {"measurement": "Max. % T/C", "setting": "[10]; Expt. 799, 6 mg/kg/inj (MTD reached), qd 1→9, ip", "value": 152, "unit": "%"},
      {"measurement": "maximum tolerated dose (MTD)", "setting": "[10]; mouse, in vivo, ip", "value": 6, "unit": "mg/kg per injection"}
    ]}
  ]
}
